According to publication PMC12256496, “An advancement in developmental and reproductive toxicity (DART) risk assessment: evaluation of a bioactivity and exposure-based NAM toolbox” (Frontiers in Toxicology, 2025):
In brackets after ≈: the same amount, converted by molar mass. Where two headings read alike, the source gives them in different places. Blank lines part the entries; values can stand above or below the molecule they belong to. Peptide text beside a SMILES is read from it.

Key:
[1] = system: human developmental and reproductive toxicity; settings: ref Supplementary Data Sheet 1, cited from earlier work
[2] = ref Supplementary Data Sheet 1, cited from earlier work
[3] = cited from earlier work
[4] = cited from earlier work; remark: listed apart in the source
[5] = cited from earlier work; for MoS: existent consumer risk assessment for the cosmetic use scenario, ref SCCS / SCCP / SCCNFP
[6] = system: developmental or reproductive toxicity in animal or human; settings: evidence of developmental or reproductive toxicity in animal or human, irrespective of exposure/dose; ref Supplementary Data Sheet 1; cited from earlier work
[7] = renal clearance, Fup*GFR (PBK parameter); settings: method Fup*GFR
[8] = set-up: method as in earlier work; settings: ref [3]; cited from earlier work
rats = settings: ref Supplementary Data Sheet 1, cited from earlier work
[9] = ref PubChem; cited from earlier work
[10] = hepatic intrinsic clearance, CLint (PBK parameter); format: in vitro ADME
thyroid peroxidase (TPO) = test: IPP: thyroid peroxidase (TPO) binding; settings: low-risk exposure scenario
Text: (§1) In vitro pharmacological profiling is used to measure specific and high affinity non-covalent binding interactions between chemicals of interest and various targets with known safety liabilities. These targets include G protein coupled receptors (GPCRs), nuclear hormone receptors (NHRs), ion channels and enzymes. For this evaluation we included 72 targets of interest a full list of which is available in Supplementary Data Sheet 5, across a range of radioligand binding, enzymatic and protein-protein interaction assays run in binding mode only.
(§2) The process for deriving a PoD for each of the 72 targets consisted of a two-step method that has been widely adopted when conducting in vitro pharmacological profiling experiments ([Brennan et al., 2024]). […] Targets showing an inhibition or stimulation greater than 50% of a maximal response produced by a reference compound are followed up in a second phase which includes an eight-point concentration response (in two replicates). […] EC50 values (concentration producing a half-maximal response) and IC50 values (concentration causing a half-maximal inhibition of the control agonist response) were determined by the Bayesian probabilistic model of the concentration-response curves and the Hill equation as per ([Labelle et al., 2019]). […] Calculated IC50s were taken forwards as the IPP PoDs ([Middleton et al., 2022]). […]

[11] = water solubility (PBK parameter); format: physicochemical; settings: Solubility pH 6.99, optimised based on [13], read-out: Aqueous Solubility
[12] = unbound fraction in plasma, fup (PBK parameter); format: in vitro ADME; settings: optimised based on [13]
[13] = Human in vivo PK data: concentration-dose ratio (CDR) and toxicokinetic variability factor (TKVF);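 note: Literature-pooled human in vivo PK data, plasma, serum or cord blood concentrations per daily dose, weighted by study population size across non-pregnant, pregnant and fetal groups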
serotonin receptor HTR2B = test: IPP: serotonin receptor HTR2B binding; settings: low-risk exposure scenario
Text: as §1, §2

[14] = human
rabbits = system: rabbits; set-up: method as in Supplementary Data Sheet 1; settings: rabbits; ref Supplementary Data Sheet 1; cited from earlier work
mice = system: mice; set-up: method as in Supplementary Data Sheet 1; settings: ref Supplementary Data Sheet 1, cited from earlier work
pigtail monkeys = system: pigtail monkeys; set-up: method as in Supplementary Data Sheet 1; settings: the only dose tested, ref Supplementary Data Sheet 1; cited from earlier work
[15] = Bioactivity exposure ratio (BER): minimum platform PoD / estimated Cmax; settings: low-risk scenario of normal dietary exposure to retinol and its metabolite
hamsters = system: hamsters; set-up: method as in Supplementary Data Sheet 1; settings: ref Supplementary Data Sheet 1; cited from earlier work

SMILES: Nc1cc([N+](=O)[O-])cc(Cl)c1O [2-Amino-6-chloro-4-nitrophenol]
- Exposure risk (DART risk classification) ([1]; Cosmetic, 2% in hair colourant, dermal): Low Risk
- NOAEL for maternal toxicity [2]: 30 mg/kg bw
- Aqueous Solubility ([3]; Solubility pH 5.04, ref [1]): 450 mg/mL
- Fup ([4]; ref [2]): 0.47%
- MoS [5]: Used safely in cosmetic products. Existent consumer risk assessment from the SCCP. MoS >400.
- DART Hazard Call [6]: Non Toxic
- Renal Clearance [7]: 0.034 L/h
- Peff [8]: 7.96 cm/s x E-04

SMILES: CCCCC(CC)C(=O)O (stereo not shown) [2-Ethylhexanoic acid (2-EHA), 2-Ethylhexanoic acid]
- developmental NOAEL (rats; 2 rat studies, clubfoot/reduced skeletal ossification): 100 mg/kg bw/day
- NOAEL for parental effects (rats; EOGRT in rats): 250 mg/kg bw/d
- Renal Clearance [7]: 0.008 L/h
- pKa Value ACID [9]: 4.8
- Intrinsic Liver Clearance ([10]; optimised based on [16]): 7.128 L/h

SMILES: Cc1c(O)cccc1O [2-Methylresorcinol]
- Exposure risk (DART risk classification) ([1]; Cosmetic, […] in hair colourant, dermal): Low Risk
- BER from thyroid peroxidase (TPO) binding (thyroid peroxidase (TPO)): < 1
- Aqueous Solubility ([3]; Solubility pH 4.91, ref [7]): 263 mg/mL
- MoS [5]: Used safely in cosmetic products. Existent consumer risk assessment from the SCCS. MoS >4000.
- DART Hazard Call [6]: Non Toxic
- Renal Clearance [7]: 4.792 L/h

SMILES: COC(=O)[C@H](Cc1ccccc1)NC(=O)[C@@H](N)CC(=O)O [Aspartame] (H-Asp-Phe-OMe)
- Exposure risk (DART risk classification) ([1]; Dietary, 2,400 mg/daily, oral): Low Risk
- Aqueous Solubility ([3]; Solubility pH 2.2, ref [4]): 20 mg/mL
- Fup ([4]; ref [6]): 83.8%
- ADI ([5]; ref FSCJ, EFSA, SCF, JMPR as named in the cell): ADI set by EFSA (40 mg/kg/day)
- Renal Clearance [7]: 6.049 L/h
- Intrinsic Liver Clearance ([10]; scaled from [6]): 400.2 L/h

SMILES: Cc1cc(C(C)(C)C)c(O)c(C(C)(C)C)c1 [Butylated hydroxytoluene (BHT), Butylated hydroxytoluene]
- offspring NOAEL ([2]; OECD 416, effects on litter size, sex ratio and pup body weight gain): OECD 416: 0, ~25, ~100 and ~280 mg/kg/day. Effects on offspring. Offspring NOAEL of 25 mg/kg bw/day based on effects on litter size, sex ratio and pup body weight gain.
- solubility [11]: 0.005 mg/mL (≈ 22.7 µM)
- Fup [12]: 0.33%
- MoS [5]: Used safely in cosmetic products. Existent consumer risk assessment from the SCCS. MoS >3000.
- TKVF ([13]; Non-Pregnant, oral): 2.5
- Renal Clearance [7]: 0.02382 L/h
- Intrinsic Liver Clearance ([10]; optimised based on [13]): 22540.4 L/h

SMILES: CCOC(=O)c1ccccc1C(=O)OCC [Diethyl phthalate (DEP), Diethyl phthalate]
- BER from binding to the serotonin receptor HTR2B (serotonin receptor HTR2B): < 1
- MoS [5]: Used safely in cosmetic products. Existent safety assessment from the SCCNFP. MoS 161

SMILES: CCOC(=O)c1ccccc1C(=O)OCC [Diethyl phthalate]
- Renal Clearance [14]: 1.371 L/h
- Fup ([4]; ref [19]): 19%
- Intrinsic Liver Clearance [10]: 596.6 L/h

SMILES: CN(C)C(=N)N=C(N)N [Metformin]
- Exposure risk (DART risk classification) ([1]; Pharmaceutical, 2,000 mg/daily, oral): Low Risk
- highest dose not teratogenic (rabbits): 600 mg/kg/day
- highest dose not teratogenic (rats; rats): 600 mg/kg/day
- CDR fold difference to non-pregnant ([13]; female, human, in vivo): 0.73
- CDR fold difference to pregnant ([13]; female, human, in vivo): 1.00
- TKVF ([13]; female, human, in vivo): 2.75
- 95% percentile (Conc-dose-ratio) ([13]; female, human, in vivo, po): 0.0213
- Fold Difference to non-pregnant ([13]; female, human, in vivo, po): 0.73
- Fold Difference to pregnant ([13]; female, human, in vivo, po): 1.00
- Mean Conc-dose -ratio ([13]; female, human, in vivo, po): 0.008 uM/(mg/day]
- TKVF ([13]; female, human, in vivo, po): 2.75
- CDR fold difference to pregnant ([13]; human, in vivo): 0.56
- Fold Difference to pregnant ([13]; human, in vivo, po): 0.56
- DART Hazard Call [6]: Non Toxic

SMILES: O=C1CN(/N=C/c2ccc([N+](=O)[O-])o2)C(=O)N1 [Nitrofurantoin]
- Exposure risk (DART risk classification) ([1]; Pharmaceutical, 200 mg/daily, oral): High Risk
- multiple of human dose with growth retardation and low incidence of minor and common malformations (mice; based on mg/kg administered to the dam): 68 times
- multiple of human dose at which fetal malformations were not observed (mice): 25 times
- CDR fold difference to non-pregnant ([13]; female, human, in vivo): 1.29
- CDR fold difference to pregnant ([13]; female, human, in vivo): 1.00
- TKVF ([13]; female, human, in vivo): 5.73
- CDR fold difference to pregnant ([13]; human, in vivo): 1.74
- 95% percentile (Conc-dose-ratio) ([13]; human, in vivo, po): 0.11
- Fold Difference to non-pregnant ([13]; human, in vivo, po): 1.00
- Mean Conc-dose -ratio ([13]; human, in vivo, po): 0.033 uM/(mg/day]
- TKVF ([13]; human, in vivo, po): 3.36
- DART Hazard Call [6]: Uncertain

- BER [15]: < 1
SMILES: CC1=C(/C=C/C(C)=C/C=C/C(C)=C/C(=O)O)C(C)(C)CCC1 [all-trans-retinoic acid (ATRA), all-trans-retinoic acid]
- Exposure risk (DART risk classification) ([1]; Dietary, <10,000 IU Retinol, oral): Low Risk
- Exposure risk (DART risk classification) ([1]; Pharmaceutical, 80 mg/daily, oral): High Risk
- Exposure risk (DART risk classification) ([1]; Pharmaceutical, 0.1% cream, dermal): Uncertain Risk
- dose at which gross external, soft tissue and skeletal alterations occurred (pigtail monkeys): 10 mg/kg/day
- dose above which gross external, soft tissue and skeletal alterations occurred (rats; rats): > 2 mg/kg/day
- dose above which gross external, soft tissue and skeletal alterations occurred (mice): > 0.7 mg/kg/day
- CDR fold difference to non-pregnant ([13]; female, human, in vivo): 0.77
- CDR fold difference to pregnant ([13]; female, human, in vivo): 1.00
- TKVF ([13]; female, human, in vivo): 1.47
- CDR fold difference to pregnant ([13]; human, in vivo): 0.71
- DART Hazard Call [6]: Toxic
- dose above which gross external, soft tissue and skeletal alterations occurred (hamsters): > 7 mg/kg/day
